Results: patent US20230416261A1, “ETHANEDIAMINE-HETEROCYCLE DERIVATIVES AS INHIBITORS OF PROTEIN ARGININE METHYLTRANSFERASES” (Board of Regents, The University of Texas System, priority 2021, published 2023)
pIC50: −log10 of the molar value.

Key:
[1] = biological target: PRMT1 (Homo sapiens, UniProt Q99873); assay: PRMT1 Enzymatic Assay (LANCE TR-FRET, methylation of histone H4 at Arg3); type: biochemical; set-up: purchased SignalChem P365-380G; details: PRMT1 1.5 nM, SAM 1 μM, biotinylated histone H4 (1-21) 25 nM; read-out: PRMT-1 IC50
PRMT1, sequence (Q99873 whole entry): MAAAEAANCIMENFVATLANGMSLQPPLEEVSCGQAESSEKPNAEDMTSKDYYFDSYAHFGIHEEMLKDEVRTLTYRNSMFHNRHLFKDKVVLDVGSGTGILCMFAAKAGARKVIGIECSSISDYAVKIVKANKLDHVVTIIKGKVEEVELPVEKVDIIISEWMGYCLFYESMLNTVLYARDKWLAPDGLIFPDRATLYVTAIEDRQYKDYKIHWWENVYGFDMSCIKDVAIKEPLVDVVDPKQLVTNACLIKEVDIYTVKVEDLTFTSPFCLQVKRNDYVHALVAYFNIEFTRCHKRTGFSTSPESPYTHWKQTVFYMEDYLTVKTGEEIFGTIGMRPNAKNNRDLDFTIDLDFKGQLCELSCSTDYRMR
Method in brief: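 PRMT1 (1.5 nM) preincubated 15 min with compound at room temperature, then reacted 1 h with 1 μM SAM and 25 nM biotinylated histone H4 (1-21) in 50 mM Hepes pH 8, 1 mM TCEP, 0.003% Tween-20. H4R3me detected by TR-FRET (665/620 nm ratio); IC50 from four-parameter logistic fit.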

[2] = system: DOHH2 cells; assay: DOHH2 Long Term Phenotypic Assay (7 days, Cell Titer-Glo viability); type: cell-based; details: Homo sapiens, DOHH-2, 168 h, Cell Titer-Glo 2.0
Method in brief: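 DOHH2 lymphoma cells (250 per well) in RPMI-1640 with 10% FBS were exposed to 1:3 serially diluted compounds for 7 days at 37 °C, 5% CO2. Viability was read by CellTiter-Glo 2.0 luminescence, and IC50 values came from four-parameter logistic fits.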

[3] = system: PANC-1 (pancreatic ductal adenocarcinoma) xenograft; assay: Anti-tumor effects in PANC-1 mouse xenograft model; type: in vivo; details: BID, 28 days, C.B-17 SCID mice
Protocol: The effect of the compounds of Examples 1 and 2 on tumor growth was assessed in a PANC-1 (pancreatic ductal adenocarcinoma) mouse xenograft model. Female C.B -Igh-I^b/IcrTac-Prkdc^scid (C.B-17 SCID) mice were injected subcutaneously in the right flank with a suspension of […] cells (5 million cells with 50% Matrigel (Corning #356231) in sterile Dulbecco's phosphate buffered saline (DPBS, Life Technologies #14190-144). After implantation, tumor volume (TV) was measured weekly and mice bearing tumors with volumes ˜200 mm^3 were randomized into treatment groups of 8 mice each. Mice were dosed by oral gavage, twice daily for 28 days with either vehicle or 1 and 2 at the doses reported in Table 6 and Table 7 respectively. The doses were scaled to the body weights (BW) of individual animals at a dosing volume of 5 mL/Kg. Throughout the duration of study tumor growth was assessed by caliper measurement and treatment response was determined by percent tumor growth inhibition (% TGI; calculated as TGI %=(Ci−Ti)/(Ci−C0)*100%; Ci and Ti are the mean tumor volumes of the vehicle and treatment groups on the measurement day, respectively; C0 is the mean tumor volume of the vehicle group on day 0 (i.e. the day before treatment started). Mouse body weight was measured bi-weekly and reported as percentage of BW change from day 0 (calculated as Body Weight Change %=(BWi−BW0)/BW0*100%; BWi and BW0 are body weight of an individual mouse on measurement day i and on day 0, respectively). Statistical significance was calculated by repeated-measures two-way ANOVA with multiple comparisons and Tukey correction using GraphPad Prism 8.0.

| Structure (SMILES) | pIC50 [1] | pIC50 [2] | Tumor Growth Inhibition % (TGI %; day 28) ([3]; 150 mg/Kg PO) [%] | Tumor Growth Inhibition % (TGI %; day 28) ([3]; 225 mg/Kg PO) [%] |
| --- | --- | --- | --- | --- |
| COCC1(COC)CCC(c2c(CN(C)CCN)nn3c2CN(C(=O)C(C)(C)C)CC3)CC1 [Example 2, 1-(2-(((2-aminoethyl)(methyl)amino)methyl)-3-(4,4-bis(methoxymethyl)cyclohexyl)-6,7-dihydropyrazolo[1,5-a]pyrazin-5(4H)-yl)-2,2-dimethylpropan-1-one] | 7.80 | 6.80 | 48 | 70 |
| CNCCN(C)Cc1nn2c(c1C1CCC(COC)(COC)CC1)CN(C(=O)C1CCC1)CC2 [Example 1, (3-(4,4-Bis(methoxymethyl)cyclohexyl)-2-((methyl(2-(methylamino)ethyl)amino)methyl)-6,7-dihydropyrazolo[1,5-a]pyrazin-5(4H)-yl)(cyclobutyl)methanone] | 7.46 | 7.18 | 49 | 68 |
